In patent publication US11180504B2 (ORCHID PHARMA LTD., priority 2016, dated 2021):
In brackets after ≈: the same amount, converted by molar mass. Where two headings read alike, the source gives them in different places.

Key:
[1] = test system: methicillin-sensitive Staphylococcus aureus; test: MIC by broth micro-dilution (CLSI), methicillin-sensitive S. aureus; format: cell-based; conditions: MSSA S. aureus ATCC29213
[2] = test system: carbapenem sensitive Escherichia coli; test: MIC by broth micro-dilution (CLSI), carbapenem sensitive E. coli; format: cell-based
[3] = test system: carbapenem sensitive Pseudomonas aeruginosa; test: MIC by broth micro-dilution (CLSI), carbapenem sensitive P. aeruginosa; format: cell-based
[4] = test system: carbapenemase producing K. pneumoniae; test: MIC by broth micro-dilution (CLSI), carbapenemase producing K. pneumoniae; format: cell-based, Klebsiella pneumoniae
[5] = Staphylococcus aureus, ATCC 29213 / MSSA, read-out: MIC
[6] = Escherichia coli, ATCC25922, ESBL −ve E. coli ATCC25922, read-out: MIC
[7] = Pseudomonas aeruginosa, ATCC27853, Meropenem susceptible P. aeruginosa ATCC27853, read-out: MIC
[8] = Klebsiella pneumoniae, ATCCBAA1705, KPC-2 K. pneumoniae ATCC BAA-1705, read-out: MIC

Row | MIC [1, 5] [µg/mL] | MIC [2, 6] [µg/mL] | MIC [3, 7] [µg/mL] | MIC [4, 8] [µg/mL] | MIC [1] [µg/mL] | MIC ([2]; ESBL −ve E. coli ATCC25922) [µg/mL] | MIC ([3]; Meropenem susceptible P. aeruginosa ATCC27853) [µg/mL] | MIC ([4]; KPC-2 K. pneumoniae ATCC BAA-1705) [µg/mL] | Compound
1 | 4 (≈ 6.61 µM) | 0.25 (≈ 0.413 µM) | 1 (≈ 1.65 µM) | 1 (≈ 1.65 µM) | – | – | – | – | C[C@@H](NC(=O)Cn1cnnn1)[C@H]1C(=O)N2C(C(=O)O)=C(S[C@@H]3CN[C@H](C(=O)N4CCN(C(=O)CCN)CC4)C3)[C@H](C)[C@H]12 [Example 419, (4R,5S,6R)-6-((R)-1-(2-(1H-tetrazol-1-yl)acetamido)ethyl)-3-((3S,5S)-5-(4-(3-aminopropanoyl)piperazine-1-carbonyl)pyrrolidin-3-ylthio)-4-methyl-7-oxo-1-azabicyclo[3.2.0]hept-2-ene-2-carboxylic acid]
2 | 8 (≈ 14.2 µM) | 0.5 (≈ 0.889 µM) | 32 (≈ 56.9 µM) | 2 (≈ 3.55 µM) | – | – | – | – | C[C@@H](NC(=O)Cn1cnnn1)[C@H]1C(=O)N2C(C(=O)O)=C(S[C@@H]3CN[C@H](C(=O)N4CCC(CO)CC4)C3)[C@H](C)[C@H]12 [Example 423, (4R,5S,6R)-6-((R)-1-(2-(1H-tetrazol-1-yl)acetamido)ethyl)-3-((3S,5S)-5-(4-(hydroxymethyl)piperidine-1-carbonyl)pyrrolidin-3-ylthio)-4-methyl-7-oxo-1-azabicyclo[3.2.0]hept-2-ene-2-carboxylic acid]
3 | 4 (≈ 6.63 µM) | 0.25 (≈ 0.414 µM) | 2 (≈ 3.31 µM) | 1 (≈ 1.66 µM) | – | – | – | – | C[C@@H](NC(=O)Cn1cnnn1)[C@H]1C(=O)N2C(C(=O)O)=C(S[C@@H]3CN[C@H](C(=O)N4CCC(N5CC(O)C5)CC4)C3)[C@H](C)[C@H]12 [Example 426, (4R,5S,6R)-6-((R)-1-(2-(1H-tetrazol-1-yl)acetamido)ethyl)-3-((3S,5S)-5-(4-(3-hydroxyazetidin-1-yl]piperidine-1-carbonyl)pyrrolidin-3-ylthio)-4-methyl-7-oxo-1-azabicyclo[3.2.0]hept-2-ene-2-carboxylic acid]
4 | 4 (≈ 6.79 µM) | 0.25 (≈ 0.425 µM) | 2 (≈ 3.4 µM) | 2 (≈ 3.4 µM) | – | – | – | – | C[C@@H](NC(=O)Cn1cnnn1)[C@H]1C(=O)N2C(C(=O)O)=C(S[C@@H]3CN[C@H](C(=O)N4CC(N5CCNCC5)C4)C3)[C@H](C)[C@H]12 [Example 429, (4R,5S,6R)-6-((R)-1-(2-(1H-tetrazol-1-yl)acetamido)ethyl)-4-methyl-7-oxo-3-((3S,5S)-5-(3-(piperazin-1-yl)azetidine-1-carbonyl)pyrrolidin-3-ylthio)-1-azabicyclo[3.2.0]hept-2-ene-carboxylic acid]
5 | 4 (≈ 6.2 µM) | 0.5 (≈ 0.775 µM) | 4 (≈ 6.2 µM) | 2 (≈ 3.1 µM) | – | – | – | – | C[C@@H](NC(=O)Cn1cnnn1)[C@H]1C(=O)N2C(C(=O)O)=C(S[C@@H]3CN[C@H](C(=O)N4CCC(C(=O)N5CCNCC5)CC4)C3)[C@H](C)[C@H]12 [Example 430, (4R,5S,6R)-6-((R)-1-(2-(1H-tetrazol-1-yl)acetamido)ethyl)-4-methyl-7-oxo-3-((3S,5S)-5-(4-(piperazine-1-carbonyl)piperidine-1-carbonyl)pyrrolidin-3-ylthio)-1-azabicyclo[3.2.0]hept-2-ene-2-carboxylic acid]
6 | 2 (≈ 3.64 µM) | 0.25 (≈ 0.455 µM) | 1 (≈ 1.82 µM) | 0.5 (≈ 0.91 µM) | – | – | – | – | C[C@@H](NC(=O)Cn1cnnn1)[C@H]1C(=O)N2C(C(=O)O)=C(S[C@@H]3CN[C@H](C(=O)N4C[C@@H](O)[C@@H](N)C4)C3)[C@H](C)[C@H]12 [Example 431, (4R,5S,6R)-6-((R)-1-(2-(1H-tetrazol-1-yl)acetamido)ethyl)-3-((3S,5S)-5-((3S,4R)-3-amino-4-hydroxypyrrolidine-1-carbonyl)pyrrolidin-3-ylthio)-4-methyl-7-oxo-1-azabicyclo[3.2.0]hept-2-ene-2-carboxylic acid]
7 | – | – | – | – | 2 (≈ 3.54 µM) | 0.25 (≈ 0.442 µM) | 1 (≈ 1.77 µM) | 1 (≈ 1.77 µM) | C[C@@H](NC(=O)Cn1cnnn1)[C@H]1C(=O)N2C(C(=O)O)=C(S[C@@H]3CN[C@H](C(=O)N4CCC(N)C(F)C4)C3)[C@H](C)[C@H]12 (stereo partly drawn) [Example 433, (4R,5S,6R)-6-((R)-1-(2-(1H-tetrazol-1-yl)acetamido)ethyl)-3-((3S,5S)-5-(4-amino-3-fluoropiperidine-1-carbonyl)pyrrolidin-3-ylthio)-4-methyl-7-oxo-1-azabicyclo[3.2.0]hept-2-ene-2-carboxylic acid]
8 | 2 (≈ 3.4 µM) | 0.25 (≈ 0.425 µM) | 1 (≈ 1.7 µM) | 1 (≈ 1.7 µM) | – | – | – | – | C[C@@H](NC(=O)Cn1cnnn1)[C@H]1C(=O)N2C(C(=O)O)=C(S[C@@H]3CN[C@H](C(=O)N4CCC5(CCNC5)CC4)C3)[C@H](C)[C@H]12 [Example 435, (4R,5S,6R)-6-((R)-1-(2-(1H-tetrazol-1-yl)acetamido)ethyl)-3-((3S,5S)-5-(2,8-diazaspiro[4.5]decane-8-carbonyl)pyrrolidin-3-ylthio)-4-methyl-7-oxo-1-azabicyclo[3.2.0]hept-2-ene-2-carboxylic acid]

More lines, now with the values behind:

Row | Compound | MIC [1, 5] [µg/mL] | MIC [2, 6] [µg/mL] | MIC [3, 7] [µg/mL] | MIC [4, 8] [µg/mL] | MIC [1] [µg/mL] | MIC ([2]; ESBL −ve E. coli ATCC25922) [µg/mL] | MIC ([3]; Meropenem susceptible P. aeruginosa ATCC27853) [µg/mL] | MIC ([4]; KPC-2 K. pneumoniae ATCC BAA-1705) [µg/mL]
9 | C[C@@H](NC(=O)Cn1cnnn1)[C@H]1C(=O)N2C(C(=O)O)=C(S[C@@H]3CN[C@H](C(=O)N4CCN(C(=O)[C@@H](N)CO)CC4)C3)[C@H](C)[C@H]12 [Example 420, (4R,5S,6R)-6-((R)-1-(2-(1H-tetrazol-1-yl)acetamido)ethyl)-3-((3S,5S)-5-(4-((S)-2-amino-3-hydroxypropanoyl)piperazine-1-carbonyl)pyrrolidin-3-ylthio)-4-methyl-7-oxo-1-azabicyclo[3.2.0]hept-2-ene-2-carboxylic acid] | 4 (≈ 6.44 µM) | 0.25 (≈ 0.403 µM) | 2 (≈ 3.22 µM) | 1 (≈ 1.61 µM) | – | – | – | –
10 | C[C@@H](NC(=O)Cn1cnnn1)[C@H]1C(=O)N2C(C(=O)O)=C(S[C@@H]3CN[C@H](C(=O)N4CCC(CNC(=O)CN)CC4)C3)[C@H](C)[C@H]12 [Example 422, (4R,5S,6R)-6-((R)-1-(2-(1H-tetrazol-1-yl)acetamido)ethyl)-3-((3S,5S)-5-(4-((2-aminoacetamido)methyl)piperidine-1-carbonyl)pyrrolidin-3-ylthio)-4-methyl-7-oxo-1-azabicyclo[3.2.0]hept-2-ene-2-carboxylic acid] | 4 (≈ 6.46 µM) | 0.25 (≈ 0.404 µM) | 4 (≈ 6.46 µM) | 2 (≈ 3.23 µM) | – | – | – | –
11 | C[C@@H](NC(=O)Cn1cnnn1)[C@H]1C(=O)N2C(C(=O)O)=C(S[C@@H]3CN[C@H](C(=O)N4CC(N)(CC#N)C4)C3)[C@H](C)[C@H]12 [Example 424, (4R,5S,6R)-6-((R)-1-(2-(1H-tetrazol-1-yl)acetamido)ethyl)-3-((3S,5S)-5-(3-amino-3-(cyanomethyl)azetidine-1-carbonyl)pyrrolidin-3-ylthio)-4-methyl-7-oxo-1-azabicyclo[3.2.0]hept-2-ene-2-carboxylic acid] | 16 (≈ 28.6 µM) | 0.25 (≈ 0.448 µM) | 16 (≈ 28.6 µM) | 2 (≈ 3.58 µM) | – | – | – | –
12 | C[C@@H](NC(=O)Cn1cnnn1)[C@H]1C(=O)N2C(C(=O)O)=C(S[C@@H]3CN[C@H](C(=O)N4C[C@H](NC(=N)N)[C@@H](O)C4)C3)[C@H](C)[C@H]12 [Example 427, (4R,5S,6R)-6-((R)-1-(2-(1H-tetrazol-1-yl)acetamido)ethyl)-3-((3S,5S)-5-((3S,4S)-3-guanidino-4-hydroxypyrrolidine-1-carbonyl)pyrrolidin-3-ylthio)-4-methyl-7-oxo-1-azabicyclo[3.2.0]hept-2-ene-2-carboxylic acid] | 2 (≈ 3.38 µM) | 0.25 (≈ 0.423 µM) | 2 (≈ 3.38 µM) | 1 (≈ 1.69 µM) | – | – | – | –
13 | C[C@@H](NC(=O)Cn1cnnn1)[C@H]1C(=O)N2C(C(=O)O)=C(S[C@@H]3CN[C@H](C(=O)N4CCC(C(=O)N5CC[C@@H](N)C5)CC4)C3)[C@H](C)[C@H]12 [Example 428, (4R,5S,6R)-6-((R)-1-(2-(1H-tetrazol-1-yl)acetamido)ethyl)-3-((3S,5S)-5-(4-((R)-3-aminopyrrolidine-1-carbonyl)piperidine-1-carbonyl)pyrrolidin-3-ylthio)-4-methyl-7-oxo-1-azabicyclo[3.2.0]hept-2-ene-2-carboxylic acid] | 4 (≈ 6.2 µM) | 0.5 (≈ 0.775 µM) | 2 (≈ 3.1 µM) | 4 (≈ 6.2 µM) | – | – | – | –
14 | C[C@@H](NC(=O)Cn1cnnn1)[C@H]1C(=O)N2C(C(=O)O)=C(S[C@@H]3CN[C@H](C(=O)N4CCN(CCNC(=N)N)CC4)C3)[C@H](C)[C@H]12 [Example 432, (4R,5S,6R)-6-((R)-1-(2-(1H-tetrazol-1-yl)acetamido)ethyl)-3-((3S,5S)-5-(4-(2-guanidinoethyl)piperazine-1-carbonyl)pyrrolidin-3-ylthio)-4-methyl-7-oxo-1-azabicyclo[3.2.0]hept-2-ene-2-carboxylic acid] | 2 (≈ 3.23 µM) | 0.25 (≈ 0.404 µM) | 1 (≈ 1.62 µM) | 1 (≈ 1.62 µM) | – | – | – | –
15 | C[C@@H](NC(=O)Cn1cnnn1)[C@H]1C(=O)N2C(C(=O)O)=C(S[C@@H]3CN[C@H](C(=O)N4CCN(C(=O)[C@H]5C[C@@H](N)CN5)CC4)C3)[C@H](C)[C@H]12 [Example 434, (4R,5S,6R)-6-((R)-1-(2-(1H-tetrazol-1-yl)acetamido)ethyl)-3-((3S,5S)-5-(4-((2R,4R)-4-aminopyrrolidine-2-carbonyl)piperazine-1-carbonyl)pyrrolidin-3-ylthio)-4-methyl-7-oxo-1-azabicyclo[3.2.0]hept-2-ene-2-carboxylic acid] | 2 (≈ 3.1 µM) | 0.5 (≈ 0.774 µM) | 2 (≈ 3.1 µM) | 2 (≈ 3.1 µM) | – | – | – | –
16 | C[C@@H](NC(=O)Cn1cnnn1)[C@H]1C(=O)N2C(C(=O)O)=C(S[C@@H]3CN[C@H](C(=O)N(CCO)CCO)C3)[C@H](C)[C@H]12 [Example 436, (4R,5S,6R)-6-((R)-1-(2-(1H-tetrazol-1-yl)acetamido)ethyl)-3-((3S,5S)-5-(bis(2-hydroxyethyl)carbarnoyl)pyrrolidin-3-ylthio)-4-methyl-7-oxo-1-azabicyclo[3.2.0]hept-2-ene-2-carboxylic acid] | 8 (≈ 14.5 µM) | 0.25 (≈ 0.452 µM) | 8 (≈ 14.5 µM) | 1 (≈ 1.81 µM) | – | – | – | –
